Test results as given in article PMC4264749, “Phlebotomy Treatment for Elimination of Perfluoroalkyl Acids in a Highly Exposed Family: A Retrospective Case-Series” (PLoS ONE, 2014).
Where two headings read alike, the source gives them in different places.

How the values were obtained:
[1] = parameters: method as in earlier work; conditions: 2009–2011; cited from earlier work
[2] = Apparent elimination half-life (HLapp) and phlebotomy efficiency coefficient in treated family members; type: in vivo, human; conditions: family members with regular phlebotomy, except parent
Description: To evaluate the effect of phlebotomy, versus the expected rate of intrinsic elimination, we graphically and statistically compared the observed decreasing trends in each family member (fitted to a simple exponential decay model) with reference population elimination kinetics. Specifically, for the reference population of occupationally exposed retirees, we considered: i) the 95% confidence interval of the geometric mean elimination rate for each PFAA, and ii) the fastest individual rate of elimination rate among the reference population. For comparative purposes, the concentration of each PFAA in serum on the first day of the intervention was taken as time zero, and the models were forced through this starting point.
One metric that was calculated to compare the efficiency of the phlebotomy for removal of different PFAAs in each family member was termed the phlebotomy efficiency coefficient (EC). This was based on the subtractive difference between HLapp (yrs) in each treated family member and the geometric mean HLin (yrs) of the reference population according to Equation 1 . [drawing 1] (1)

[3] = parameters: method as in PMID 23980546; conditions: urinary excretion, China, cited from earlier work
[4] = parameters: method as in PMID 17805419; conditions: cited from earlier work
[5] = Serum PFAA concentrations in family members during intermittent phlebotomy (HPLC-MS/MS); type: in vivo, human; conditions: for Serum concentration before treatment: before phlebotomy; for Serum concentration after treatment: after phlebotomy
Description: After receiving informed consent, intermittent phlebotomy was undertaken at an overall rate (Table 2) that was equal to or less than the maximum rate of what is done for routine blood donations at the Canadian Blood Services: ∼500 ccs of whole blood every 56 days. Frequency and timing of blood removal was not consistent between family members because of their personal availability, success at each time of venesection, and compliance of each participant. […] Mineral supplementation was discussed and was taken by each participant.
All serum samples were submitted to ALS Laboratories (Edmonton, AB) for quantitative analysis of PFAAs (see Supporting Information, S1 Table). Samples were extracted by solid phase extraction and concentrations of PFHxS, PFOS, and PFOA were determined using high performance liquid chromatography/tandem mass spectrometry. Formic acid (0.1 M) along with a mixture of isotopically labeled PFAAs (Wellington Laboratories, Guelph, Ontario) were added to 1.0 mL of serum. The mixture was vortexed, sonicated, and subjected to solid phase extraction. The extract was concentrated to 100 uL and an instrument performance internal standard was added along with 200 uL of 90% 20 mM aqueous acetic acid/10% methanol. Procedural blanks were run with each set of samples, and method limits of quantification (LOQ) were 0.5 ng/mL for each analyte. For the few PFAA levels that fell below this LOQ (shown as hollow circles in Figs. 1–3), LOQ/√2 (i.e. 0.35 ng/mL) was substituted for purposes of data analysis. PFHxS, PFOS, and PFOA levels in all participating family members were >LOQ throughout the intervention except for 3 PFOS measurements out of 16 total measurements in the 3rd child and one PFOA measurement out of 9 total measurements in the […]. Written informed consent was given by participants (or parents in the case of children) for their clinical records to be used in this study.

O=S(=O)(O)C(F)(F)C(F)(F)C(F)(F)C(F)(F)C(F)(F)C(F)(F)C(F)(F)C(F)(F)F [PFOS, perfluoroctane sulfonate]
95th percentile of serum concentration among Canadians [1]: 18 ng/mL
HLapp compared with geometric mean HLin of reference population [2]: significantly shorter
HLapp ([3]; males and post-menopausal females): 27 years
HLapp ([3]; reproductive-aged females): 6.2 years
HLin of fastest eliminator in the reference population ([4]; reference population of occupationally exposed retirees (26 individuals)): 2.4 yrs
95% confidence interval of the geometric mean HLin ([4]; reference population of occupationally exposed retirees): 4.0–5.8 yrs
intrinsic human elimination half-life (HLin) ([4]; serum, highly contaminated retirees >55 yrs, previously occupationally exposed): 5.4 years
HLin, 95% confidence interval ([4]; serum, retirees >55 yrs, previously occupationally exposed): 3.9–6.9 yrs
Serum concentration before treatment ([5]; 1st Child): 19.3 ng/mL
Serum concentration ([5]; 1st Child, sampling date 2009.10.12): 14.3 ng/mL
Serum concentration ([5]; 1st Child, sampling date 2009.12.24): 16.1 ng/mL
Serum concentration ([5]; 1st Child, sampling date 2009.6.9): 19.3 ng/mL
Serum concentration ([5]; 1st Child, sampling date 2009.9.9): 14.8 ng/mL
Serum concentration ([5]; 1st Child, sampling date 2010.10.14): 0.73 ng/mL
Serum concentration ([5]; 1st Child, sampling date 2010.1.17): 11.3 ng/mL
Serum concentration ([5]; 1st Child, sampling date 2010.2.11): 6.84 ng/mL
Serum concentration ([5]; 1st Child, sampling date 2010.4.14): 17.9 ng/mL
Serum concentration ([5]; 1st Child, sampling date 2011.12.5): 0.93 ng/mL
Serum concentration ([5]; 1st Child, sampling date 2011.5.17, LOD=0.5ng/mL): <LOD
Serum concentration ([5]; 1st Child, sampling date 2011.8.12, LOD=0.5ng/mL): <LOD
Serum concentration ([5]; 1st Child, sampling date 2012.12.28, LOD=0.5ng/mL): <LOD
Serum concentration ([5]; 1st Child, sampling date 2012.4.24): 2.12 ng/mL
Serum concentration ([5]; 1st Child, sampling date 2012.8.21): 1.44 ng/mL
Serum concentration ([5]; 1st Child, sampling date 2013.3.30): 0.61 ng/mL
Serum concentration ([5]; 1st Child, sampling date 2013.7.30): 1.59 ng/mL
Serum concentration before treatment ([5]; 2nd Child): 59.7 ng/mL
Serum concentration ([5]; 2nd Child, sampling date 2009.10.24): 44.7 ng/mL
Serum concentration ([5]; 2nd Child, sampling date 2009.6.6): 59.7 ng/mL
Serum concentration ([5]; 2nd Child, sampling date 2009.7.2): 51.9 ng/mL
Serum concentration ([5]; 2nd Child, sampling date 2009.7.30): 51.9 ng/mL
Serum concentration ([5]; 2nd Child, sampling date 2009.8.24): 67.8 ng/mL
Serum concentration ([5]; 2nd Child, sampling date 2009.9.27): 41.4 ng/mL
Serum concentration ([5]; 2nd Child, sampling date 2010.1.3): 36.6 ng/mL
Serum concentration ([5]; 2nd Child, sampling date 2010.2.15): 47.7 ng/mL
Serum concentration ([5]; 2nd Child, sampling date 2011.10.2): 1.8 ng/mL
Serum concentration ([5]; 2nd Child, sampling date 2011.12.24): 13.9 ng/mL
Serum concentration ([5]; 2nd Child, sampling date 2011.4.27): 7.0 ng/mL
Serum concentration ([5]; 2nd Child, sampling date 2011.8.14): 4.6 ng/mL
Serum concentration ([5]; 2nd Child, sampling date 2012.12.24): 5.5 ng/mL
Serum concentration ([5]; 2nd Child, sampling date 2012.4.6): 12.2 ng/mL
Serum concentration ([5]; 2nd Child, sampling date 2013.5.11.): 9.2 ng/mL
Serum concentration ([5]; 2nd Child, sampling date 2013.7.15): 9.0 ng/mL
Serum concentration before treatment ([5]; 3rd Child): 87.3 ng/mL
Serum concentration ([5]; 3rd Child, sampling date 2009.10.11): 107.0 ng/mL
Serum concentration ([5]; 3rd Child, sampling date 2009.12.16): 48.9 ng/mL
Serum concentration ([5]; 3rd Child, sampling date 2009.6.1): 87.3 ng/mL
Serum concentration ([5]; 3rd Child, sampling date 2009.7.4): 102.9 ng/mL
Serum concentration ([5]; 3rd Child, sampling date 2009.8.7): 76.5 ng/mL
Serum concentration ([5]; 3rd Child, sampling date 2009.9.7): 113.0 ng/mL
Serum concentration ([5]; 3rd Child, sampling date 2010.1.24): 58.8 ng/mL
Serum concentration ([5]; 3rd Child, sampling date 2010.3.12): 66.3 ng/mL
Serum concentration ([5]; 3rd Child, sampling date 2010.5.23): 52.8 ng/mL
Serum concentration ([5]; 3rd Child, sampling date 2011.1.6): 18.6 ng/mL
Serum concentration ([5]; 3rd Child, sampling date 2011.11.26): 9.2 ng/mL
Serum concentration ([5]; 3rd Child, sampling date 2011.2.24): 11.9 ng/mL
Serum concentration ([5]; 3rd Child, sampling date 2011.4.30): 12.1 ng/mL
Serum concentration ([5]; 3rd Child, sampling date 2011.6.13): 11.5 ng/mL
Serum concentration ([5]; 3rd Child, sampling date 2011.9.27): 4.8 ng/mL
Serum concentration ([5]; 3rd Child, sampling date 2012.10.16): 17.1 ng/mL
Serum concentration ([5]; 3rd Child, sampling date 2012.1.8): 20.8 ng/mL
Serum concentration ([5]; 3rd Child, sampling date 2012.12.9): 10.5 ng/mL
Serum concentration ([5]; 3rd Child, sampling date 2012.3.4): 25.4 ng/mL
Serum concentration ([5]; 3rd Child, sampling date 2012.4.28): 19.8 ng/mL
Serum concentration ([5]; 3rd Child, sampling date 2013.10.27): 12.2 ng/mL
Serum concentration ([5]; 3rd Child, sampling date 2013.2.5): 8.8 ng/mL
Serum concentration ([5]; 3rd Child, sampling date 2013.3.30): 8.0 ng/mL
Serum concentration ([5]; 3rd Child, sampling date 2013.5.5): 12.8 ng/mL
Serum concentration ([5]; 3rd Child, sampling date 2013.7.25): 13.4 ng/mL
Serum concentration ([5]; 3rd Child, sampling date 2013.9.8): 12.0 ng/mL
starting serum concentration relative to 95th percentile among Canadians ([5]; 3 youngest children): 3–5 fold
Serum concentration after treatment ([5]; 4th Child): 5.0 ng/mL
Serum concentration before treatment ([5]; 4th Child): 62.4 ng/mL
Serum concentration ([5]; 4th Child, sampling date 2010.1.24): 26.8 ng/mL
Serum concentration after treatment ([5]; Average of 6 family members): 6.7 ng/mL
Serum concentration before treatment ([5]; Average of 6 family members): 43.4 ng/mL
Serum concentration before treatment ([5]; Parent one): 15.1 ng/mL
Serum concentration ([5]; Parent one, sampling date 2009.10.11): 8.8 ng/mL
Serum concentration ([5]; Parent one, sampling date 2009.10.12): 9.2 ng/mL
Serum concentration ([5]; Parent one, sampling date 2009.11.12): 11.0 ng/mL
Serum concentration ([5]; Parent one, sampling date 2009.12.14): 8.6 ng/mL
Serum concentration ([5]; Parent one, sampling date 2009.2.2): 15.1 ng/mL
Serum concentration ([5]; Parent one, sampling date 2009.5.18): 13.2 ng/mL
Serum concentration ([5]; Parent one, sampling date 2009.6.1): 11.8 ng/mL
Serum concentration ([5]; Parent one, sampling date 2009.7.4): 9.8 ng/mL
Serum concentration ([5]; Parent one, sampling date 2009.9.1): 11.3 ng/mL
Serum concentration ([5]; Parent one, sampling date 2010.10.10): 6.1 ng/mL
Serum concentration ([5]; Parent one, sampling date 2010.1.17): 8.6 ng/mL
Serum concentration ([5]; Parent one, sampling date 2010.3.13): 6.8 ng/mL
Serum concentration ([5]; Parent one, sampling date 2011.1.6): 2.3 ng/mL
Serum concentration ([5]; Parent one, sampling date 2011.11.26): 1.4 ng/mL
Serum concentration ([5]; Parent one, sampling date 2011.2.24): 2.1 ng/mL
Serum concentration ([5]; Parent one, sampling date 2011.4.30): 1.5 ng/mL
Serum concentration ([5]; Parent one, sampling date 2011.6.22): 1.6 ng/mL
Serum concentration ([5]; Parent one, sampling date 2011.8.4): 1.3 ng/mL
Serum concentration ([5]; Parent one, sampling date 2011.9.27): 0.5 ng/mL
Serum concentration ([5]; Parent one, sampling date 2012..12.28): 0.66 ng/mL
Serum concentration ([5]; Parent one, sampling date 2012.1.14): 3.8 ng/mL
Serum concentration ([5]; Parent one, sampling date 2012.11.1): 1.7 ng/mL
Serum concentration ([5]; Parent one, sampling date 2012.3.4): 3.7 ng/mL
Serum concentration ([5]; Parent one, sampling date 2012.4.29): 2.7 ng/mL
Serum concentration ([5]; Parent one, sampling date 2012.7.8): 3.1 ng/mL
Serum concentration ([5]; Parent one, sampling date 2012.8.21): 3.1 ng/mL
Serum concentration ([5]; Parent one, sampling date 2013.10.27): 1.4 ng/mL
Serum concentration ([5]; Parent one, sampling date 2013.2.18): 1.3 ng/mL
Serum concentration ([5]; Parent one, sampling date 2013.3.30): 1.5 ng/mL
Serum concentration ([5]; Parent one, sampling date 2013.5.11): 2.5 ng/mL
Serum concentration ([5]; Parent one, sampling date 2013.7.15): 2.3 ng/mL
Serum concentration ([5]; Parent one, sampling date 2013.9.8): 1.4 ng/mL
Serum concentration before treatment ([5]; Parent two): 16.3 ng/mL
Serum concentration ([5]; Parent two, sampling date 2009.6.1): 16.3 ng/mL
Serum concentration ([5]; Parent two, sampling date 2009.7.7): 10.9 ng/mL
Serum concentration ([5]; Parent two, sampling date 2009.8.24): 10.4 ng/mL
Serum concentration ([5]; Parent two, sampling date 2010.1.3): 5.7 ng/mL
Serum concentration ([5]; Parent two, sampling date 2010.4.11, LOD=0.5ng/mL): 4.4 ng/mL
Serum concentration ([5]; Parent two, sampling date 2012.3.13): 4.1 ng/mL
Serum concentration ([5]; Parent two, sampling date 2013.1.1): 2.5 ng/mL
Serum concentration ([5]; Parent two, sampling date 2013.10.6): 11.0 ng/mL
Serum concentration ([5]; Parent two, sampling date 2013.6.22): 3.4 ng/mL
